Assay results: the supplement of paper PMC10307832

Experiments:
Assay in all cases: relative viability (nuclei count vs DMSO), 5 days (fraction); higher = more cells survive
Linifanib + Pemetrexed = compound: Cc1ccc(F)c(NC(=O)Nc2ccc(-c3cccc4[nH]nc(N)c34)cc2)c1 [Linifanib] + Nc1nc2[nH]cc(CCc3ccc(C(=O)N[C@@H](CCC(=O)O)C(=O)O)cc3)c2c(=O)[nH]1 [Pemetrexed] (partner 0.2 µM)
Outline: (§1)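 Relative viability equals treated-well nuclei counts divided by vehicle-well nuclei counts. Counts came from 4× images of lung cancer cell lines grown in 1536-well plates for 5 days after pin-tool dosing on the day after seeding. Dosing used one drug alone or a fixed anchor-drug dose plus five library-drug doses (not always all listed) in √10 steps, and values are medians of duplicate plates.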

Linifanib + Tozasertib = compound: Cc1ccc(F)c(NC(=O)Nc2ccc(-c3cccc4[nH]nc(N)c34)cc2)c1 [Linifanib] + Cc1cc(Nc2cc(N3CCN(C)CC3)nc(Sc3ccc(NC(=O)C4CC4)cc3)n2)n[nH]1 [Tozasertib] (partner 0.1 µM)
Outline: as §1

Linifanib + Crizotinib = compound: Cc1ccc(F)c(NC(=O)Nc2ccc(-c3cccc4[nH]nc(N)c34)cc2)c1 [Linifanib] + C[C@@H](Oc1cc(-c2cnn(C3CCNCC3)c2)cnc1N)c1c(Cl)ccc(F)c1Cl [Crizotinib] (partner 1 µM)
Outline: as §1

Linifanib + Olaparib = compound: Cc1ccc(F)c(NC(=O)Nc2ccc(-c3cccc4[nH]nc(N)c34)cc2)c1 [Linifanib] + O=C(c1cc(Cc2n[nH]c(=O)c3ccccc23)ccc1F)N1CCN(C(=O)C2CC2)CC1 [Olaparib] (partner 8 µM)
Outline: as §1

Linifanib + Navitoclax = compound: Cc1ccc(F)c(NC(=O)Nc2ccc(-c3cccc4[nH]nc(N)c34)cc2)c1 [Linifanib] + CC1(C)CCC(c2ccc(Cl)cc2)=C(CN2CCN(c3ccc(C(=O)NS(=O)(=O)c4ccc(N[C@H](CCN5CCOCC5)CSc5ccccc5)c(S(=O)(=O)C(F)(F)F)c4)cc3)CC2)C1 [Navitoclax] (partner 0.5 µM)
Outline: as §1

Linifanib + AZD7762 = compound: Cc1ccc(F)c(NC(=O)Nc2ccc(-c3cccc4[nH]nc(N)c34)cc2)c1 [Linifanib] + NC(=O)Nc1cc(-c2cccc(F)c2)sc1C(=O)N[C@H]1CCCNC1 [AZD7762] (partner 0.2 µM)
Outline: as §1

Cell Line	relative viability (Linifanib + Pemetrexed; first compound 0.03162 µM)	relative viability (Linifanib + Pemetrexed; first compound 0.1 µM)	relative viability (Linifanib + Pemetrexed; first compound 0.3162 µM)	relative viability (Linifanib + Tozasertib; first compound 0.03162 µM)	relative viability (Linifanib + Tozasertib; first compound 0.1 µM)	relative viability (Linifanib + Tozasertib; first compound 0.3162 µM)	relative viability (Linifanib + Crizotinib; first compound 0.03162 µM)	relative viability (Linifanib + Crizotinib; first compound 0.1 µM)	relative viability (Linifanib + Crizotinib; first compound 0.3162 µM)	relative viability (Linifanib + Olaparib; first compound 0.03162 µM)	relative viability (Linifanib + Olaparib; first compound 0.1 µM)	relative viability (Linifanib + Olaparib; first compound 0.3162 µM)	relative viability (Linifanib + Navitoclax; first compound 0.03162 µM)	relative viability (Linifanib + Navitoclax; first compound 0.1 µM)	relative viability (Linifanib + Navitoclax; first compound 0.3162 µM)	relative viability (Linifanib + AZD7762; first compound 0.03162 µM)	relative viability (Linifanib + AZD7762; first compound 0.1 µM)	relative viability (Linifanib + AZD7762; first compound 0.3162 µM)
SW 1573	0.857	0.879	0.777	0.195	0.193	0.189	0.784	0.91	0.74	0.463	0.498	0.505	1.03	1.28	0.897	–	–	–
NCI-H596	0.461	0.535	0.555	0.798	0.815	0.9	0.913	0.902	1.05	0.633	0.615	0.724	1.12	1.04	0.882	1.16	1.28	1.15
NCI-H2342	0.791	0.832	0.769	0.544	0.492	0.529	–	–	–	0.512	0.481	0.381	–	–	–	0.506	0.506	0.625
NCI-H358	0.168	0.166	0.155	0.113	0.112	0.106	0.502	0.762	0.51	0.521	0.771	0.55	–	–	–	0.667	0.495	0.574
ABC-1	–	–	–	0.152	0.173	0.176	1.28	1.27	0.996	0.765	0.725	0.681	–	–	–	0.869	–	0.767
EMC-BAC-2	0.456	0.448	0.472	0.296	0.266	0.302	0.837	0.791	0.733	0.508	0.498	0.487	1.19	1.17	1.15	1.18	1.21	1.09
NCI-H1666	0.943	0.876	0.892	0.626	0.666	0.658	0.971	0.989	0.966	0.809	0.716	0.766	0.982	0.948	1.17	0.941	0.854	0.833
NCI-H661	0.932	0.925	0.904	0.35	0.35	0.36	1.12	1.23	0.906	0.771	0.783	0.7	–	–	–	–	–	–
NCI-H2126	0.713	0.689	0.714	0.847	0.998	0.806	1.03	1.04	0.975	0.986	0.912	0.9	0.836	0.838	0.816	1.02	1.06	0.983
NCI-H1651	0.648	0.612	0.561	0.618	0.832	0.695	0.834	0.929	0.831	0.181	0.202	0.195	0.91	1.24	0.999	0.428	0.483	0.544
H3255	0.555	0.586	0.529	0.767	0.662	0.601	0.865	0.892	0.85	0.619	0.567	0.574	0.557	0.642	0.562	0.868	0.925	0.853
HOP-62	0.312	0.261	0.295	0.36	0.401	0.35	0.924	1.04	0.968	0.546	0.243	0.534	1	1.07	0.859	0.569	0.586	0.4
NCI-H441	0.274	0.291	0.222	0.48	0.654	0.678	0.715	0.855	0.713	0.673	0.5	0.433	0.705	0.637	0.591	1.03	1.23	0.958
SK-MES-1	1	0.964	0.962	0.882	1.06	0.819	1.01	1.03	0.81	0.636	0.795	0.71	1.18	1.25	1.04	–	–	–
EPLC-272H	0.332	0.358	0.339	0.346	0.209	0.181	0.813	0.913	0.826	0.728	1.05	0.722	1.09	1.09	0.962	0.226	0.448	0.205
NCI-H1915	0.588	0.502	0.502	0.436	0.469	0.399	0.9	0.923	0.838	0.264	0.26	0.255	0.78	0.821	0.788	0.743	0.701	0.681
NCI-H520	0.629	0.696	0.635	0.382	0.456	0.418	0.799	1.09	0.757	0.286	0.32	0.36	1.02	1.1	1.05	–	–	–
NCI-H2228	0.325	0.355	0.319	0.206	0.233	0.295	0.496	0.508	0.453	0.58	1.08	0.621	0.994	1.01	0.8	–	–	–
